Reference: patent US8138189B2, “Substituted benzene compounds as modulators of the glucocorticoid receptor” (Hoffman-La Roche Inc., priority 2009, dated 2012)

These compounds were tested against T1, full length human recombinant glucocorticoid receptor (Homo sapiens, UniProt P04150) (assay: Glucocorticoid Receptor Binding Assay (fluorescence polarization competitor assay, Fluormone GS Far Red tracer)).
T1 construct: partially purified full length human recombinant glucocorticoid receptor; purchased Panvera/Invitrogen PV4302
T1 sequence (P04150 1-777): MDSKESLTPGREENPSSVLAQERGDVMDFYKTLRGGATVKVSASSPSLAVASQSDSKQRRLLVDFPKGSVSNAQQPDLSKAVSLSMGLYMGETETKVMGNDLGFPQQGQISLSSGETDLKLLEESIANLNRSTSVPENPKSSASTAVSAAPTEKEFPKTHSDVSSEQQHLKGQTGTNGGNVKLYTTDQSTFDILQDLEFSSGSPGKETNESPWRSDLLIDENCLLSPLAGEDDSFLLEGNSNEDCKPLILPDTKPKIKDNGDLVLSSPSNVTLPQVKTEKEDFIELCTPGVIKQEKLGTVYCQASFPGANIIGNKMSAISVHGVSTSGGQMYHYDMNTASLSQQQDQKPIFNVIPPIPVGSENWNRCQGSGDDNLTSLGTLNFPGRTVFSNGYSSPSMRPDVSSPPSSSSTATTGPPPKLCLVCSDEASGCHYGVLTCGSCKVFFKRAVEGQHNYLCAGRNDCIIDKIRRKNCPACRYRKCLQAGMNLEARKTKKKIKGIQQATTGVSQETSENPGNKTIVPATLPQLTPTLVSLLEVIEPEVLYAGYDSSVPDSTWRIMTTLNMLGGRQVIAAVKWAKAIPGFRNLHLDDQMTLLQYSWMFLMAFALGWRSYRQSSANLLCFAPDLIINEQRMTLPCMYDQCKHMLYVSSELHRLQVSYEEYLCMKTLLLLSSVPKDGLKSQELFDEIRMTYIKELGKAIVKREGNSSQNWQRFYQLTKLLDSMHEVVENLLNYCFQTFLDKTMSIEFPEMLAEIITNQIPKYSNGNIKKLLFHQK
Method in brief: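 Serially diluted compounds competed with the tight-binding far-red fluorescent ligand for recombinant full-length human glucocorticoid receptor plus GR-stabilizing peptide (screening buffer pH 7.4; 3 h, 22 °C, dark). Polarization (610-660 nm) gave IC50 via sigmoidal dose-response fits, and Ki was derived by Cheng-Prusoff from tracer concentration and Kd.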

Ki	Compound
9.4 nM	CCOC(=O)c1cc(COc2ccc(C(C)C(O)(c3ccnc(C)c3)C(F)(F)F)c(Cl)c2)ccn1 (stereo not drawn) [Example 101, 4-{3-Chloro-4-[3,3,3-trifluoro-2-hydroxy-1-methyl-2-(2-methyl-pyridin-4-yl)-propyl]-phenoxymethyl}-pyridine-2-carboxylic acid ethyl ester]
20.2 nM	Cc1cc(C(O)(C(C)c2ccc(OCc3ccnc(C(=O)O)c3)cc2Cl)C(F)(F)F)ccn1 (stereo not drawn) [Example 102, 4-{3-Chloro-4-[3,3,3-trifluoro-2-hydroxy-1-methyl-2-(2-methyl-pyridin-4-yl)-propyl]-phenoxymethyl}-pyridine-2-carboxylic acid]
87.4 nM	COC(=O)c1ccc(Oc2ccc(C(C)C(O)(c3ccnc(C)c3)C(F)(F)F)c(Cl)c2)nn1 (stereo not drawn) [Example 104, 6-{3-Chloro-4-[3,3,3-trifluoro-2-hydroxy-1-methyl-2-(2-methyl-pyridin-4-yl)-propyl]-phenoxy}-pyridazine-3-carboxylic acid methyl ester]
361 nM	Cc1cc(C(O)(C(C)c2ccc(Oc3ccc(C(=O)O)nn3)cc2Cl)C(F)(F)F)ccn1 (stereo not drawn) [Example 105, 6-{3-Chloro-4-[3,3,3-trifluoro-2-hydroxy-1-methyl-2-(2-methyl-pyridin-4-yl)-propyl]-phenoxy}-pyridazine-3-carboxylic acid]
47.1 nM	CCOC(=O)c1ccc(COc2ccc(C(C)C(O)(c3ccncc3)C(F)(F)F)c(Cl)c2)cc1 (stereo not drawn) [Example 106, 4-[3-Chloro-4-(3,3,3-trifluoro-2-hydroxy-1-methyl-2-pyridin-4-yl-propyl)-phenoxymethyl]-benzoic acid ethyl ester]
30.8 nM	CC(c1ccc(OCc2ccc(C(=O)O)cc2)cc1Cl)C(O)(c1ccncc1)C(F)(F)F (stereo not drawn) [Example 107, 4-[3-Chloro-4-(3,3,3-trifluoro-2-hydroxy-1-methyl-2-pyridin-4-yl-propyl)-phenoxymethyl]-benzoic acid]
79.2 nM	COc1cc(C(=O)O)ccc1COc1ccc(C(C)C(O)(c2ccncc2)C(F)(F)F)c(Cl)c1 (stereo not drawn) [Example 109, 4-[3-Chloro-4-(3,3,3-trifluoro-2-hydroxy-1-methyl-2-pyridin-4-yl-propyl)-phenoxymethyl]-3-methoxy-benzoic acid]
6.4 nM	COC(=O)c1ccc(COc2ccc(C(C)C(O)(c3ccnc(Cl)c3)C(F)(F)F)c(Cl)c2)nc1 (stereo not drawn) [Example 110, 6-{3-Chloro-4-[2-(2-chloro-pyridin-4-yl)-3,3,3-trifluoro-2-hydroxy-1-methyl-propyl]-phenoxymethyl}-nicotinic acid methyl ester]
13 nM	CC(c1ccc(OCc2ccc(C(=O)O)cn2)cc1Cl)C(O)(c1ccnc(Cl)c1)C(F)(F)F (stereo not drawn) [Example 111, 6-{3-Chloro-4-[2-(2-chloro-pyridin-4-yl)-3,3,3-trifluoro-2-hydroxy-1-methyl-propyl]-phenoxymethyl}-nicotinic acid]
9.2 nM	COC(=O)c1cnc(COc2ccc(C(C)C(O)(c3ccnc(Cl)c3)C(F)(F)F)c(Cl)c2)cn1 (stereo not drawn) [Example 112, 5-{3-Chloro-4-[2-(2-chloro-pyridin-4-yl)-3,3,3-trifluoro-2-hydroxy-1-methyl-propyl]-phenoxymethyl}-pyrazine-2-carboxylic acid methyl ester]
13.6 nM	CC(c1ccc(OCc2cnc(C(=O)O)cn2)cc1Cl)C(O)(c1ccnc(Cl)c1)C(F)(F)F (stereo not drawn) [Example 113, 5-{3-Chloro-4-[2-(2-chloro-pyridin-4-yl)-3,3,3-trifluoro-2-hydroxy-1-methyl-propyl]-phenoxymethyl}-pyrazine-2-carboxylic acid]
24.2 nM	COC(=O)c1cnc(Oc2ccc(C(C)C(O)(c3ccnc(Cl)c3)C(F)(F)F)c(Cl)c2)cn1 (stereo not drawn) [Example 114, 5-{3-Chloro-4-[2-(2-chloro-pyridin-4-yl)-3,3,3-trifluoro-2-hydroxy-1-methyl-propyl]-phenoxy}-pyrazine-2-carboxylic acid methyl ester]
96.8 nM	CC(c1ccc(Oc2cnc(C(=O)O)cn2)cc1Cl)C(O)(c1ccnc(Cl)c1)C(F)(F)F (stereo not drawn) [Example 115, 5-{3-Chloro-4-[2-(2-chloro-pyridin-4-yl)-3,3,3-trifluoro-2-hydroxy-1-methyl-propyl]-phenoxy}-pyrazine-2-carboxylic acid]
40.6 nM	COC(=O)c1cnc(Oc2ccc(C(C)C(O)(c3ccnc(Cl)c3)C(F)(F)F)c(Cl)c2)nc1 (stereo not drawn) [Example 116, 2-{3-Chloro-4-[2-(2-chloro-pyridin-4-yl)-3,3,3-trifluoro-2-hydroxy-1-methyl-propyl]-phenoxy}-pyrimidine-5-carboxylic acid methyl ester]
111 nM	CC(c1ccc(Oc2ncc(C(=O)O)cn2)cc1Cl)C(O)(c1ccnc(Cl)c1)C(F)(F)F (stereo not drawn) [Example 117, 2-{3-Chloro-4-[2-(2-chloro-pyridin-4-yl)-3,3,3-trifluoro-2-hydroxy-1-methyl-propyl]-phenoxy}-pyrimidine-5-carboxylic acid]
10.8 nM	COC(=O)c1ccc(Oc2ccc(C(C)C(O)(c3ccnc(Cl)c3)C(F)(F)F)c(Cl)c2)nc1 (stereo not drawn) [Example 118, 6-{3-Chloro-4-[2-(2-chloro-pyridin-4-yl)-3,3,3-trifluoro-2-hydroxy-1-methyl-propyl]-phenoxy}-nicotinic acid methyl ester]
20.4 nM	CC(c1ccc(Oc2ccc(C(=O)O)cn2)cc1Cl)C(O)(c1ccnc(Cl)c1)C(F)(F)F (stereo not drawn) [Example 119, 6-{3-Chloro-4-[2-(2-chloro-pyridin-4-yl)-3,3,3-trifluoro-2-hydroxy-1-methyl-propyl]-phenoxy}-nicotinic acid]
267 nM	COc1cc(C(=O)O)ccc1COc1ccc(C(C)C(O)(c2cnn3ccccc23)C(F)(F)F)c(Cl)c1 (stereo not drawn) [Example 129, 4-[3-Chloro-4-(3,3,3-trifluoro-2-hydroxy-1-methyl-2-pyrazolo[1,5-a]pyridin-3-yl-propyl)-phenoxymethyl]-3-methoxy-benzoic acid]
437 nM	COc1cc(Oc2ccc(Cl)c(C(C)C(O)(c3ccnc(Cl)c3)C(F)(F)F)c2)ccc1C(=O)O (stereo not drawn) [Example 131, 4-{4-Chloro-3-[2-(2-chloro-pyridin-4-yl)-3,3,3-trifluoro-2-hydroxy-1-methyl-propyl]-phenoxy}-2-methoxy-benzoic acid]
1.6 nM	C[C@H](c1ccc(Oc2ccc(OCC(=O)O)cc2)cc1Cl)[C@@](O)(c1ccc(=O)n(C)c1)C(F)(F)F [Example 160]
6.2 nM	COC(=O)c1ccc(-c2ccc([C@H](C)[C@](O)(c3ccc(=O)n(C)c3)C(F)(F)F)c(Cl)c2)cc1F [Example 166, 3′-Chloro-3-fluoro-4′-[3,3,3-trifluoro-2-hydroxy-1-methyl-2-(1-methyl-6-oxo-1,6-didydro-pyridin-3-yl)-propyl]-biphenyl-4-carboxylic acid methyl ester]
45.9 nM	C[C@@H](c1ccc(-c2ccc(C(=O)O)c(F)c2)cc1Cl)[C@](O)(c1ccc(=O)n(C)c1)C(F)(F)F [Example 167, 3′-Chloro-3-fluoro-4′-[3,3,3-trifluoro-2-hydroxy-1-methyl-2-(1-methyl-6-oxo-1,6-dihydro-pyridin-3-yl)-propyl]-propylphiphenyl-4-carboxylic acid]
2.6 nM	COC(=O)c1ccc(-c2ccc([C@H](C)[C@](O)(c3ccc(=O)n(C)c3)C(F)(F)F)c(Cl)c2)cc1Cl [Example 168, 3,3′-Dichloro-4′-[3,3,3-trifluoro-2-hydroxy-1-methyl-2-(1-methyl-6-oxo-1,6-dihydro-pyridin-3-yl)-propyl]-propylphiphenyl-4-carboxylic acid methyl ester]
1.8 nM	Cc1cc([C@](O)([C@H](C)c2ccc(Oc3ccc(C(=O)O)c(Cl)c3)cc2Cl)C(F)(F)F)sc1C#N [Example 235, 2-Chloro-4-{3-chloro-4-[2-(5-cyano-4-methyl-thiophen-2-yl)-3,3,3-trifluoro-2-hydroxy-1-methyl-propyl]-phenoxy}-benzoic acid]
601 nM	Cc1cc([C@@](O)([C@@H](C)c2ccc(Oc3ccc(C(=O)O)cc3Cl)cc2Cl)C(F)(F)F)cn(C)c1=O [Example 244, 3-Chloro-4-{3-chloro-4-[(1S,2S)-2-(1,5-dimethyl-6-oxo-1,6-dihydro-pyridin-3-yl)-3,3,3-trifluoro-2-hydroxy-1-methyl-propyl]-phenoxy}-benzoic acid]
0.4 nM	Cc1cc([C@](O)([C@H](C)c2ccc(Oc3ccc(C(=O)O)cc3Cl)cc2Cl)C(F)(F)F)cn(C)c1=O [Example 245, 3-Chloro-4-{3-chloro-4-[(1R,2R)-2-(1,5-dimethyl-6-oxo-1,6-dihydro-pyridin-3-yl)-3,3,3-trifluoro-2-hydroxy-1-methyl-propyl]-phenoxy}-benzoic acid]
0.5 nM	Cc1cc([C@@](O)([C@@H](C)c2ccc(Oc3ccc(C(=O)O)cn3)cc2Cl)C(F)(F)F)cn(C)c1=O [Example 246, 6-{3-Chloro-4-[(1S,2S)-2-(1,5-dimethyl-6-oxo-1,6-dihydro-pyridin-3-yl)-3,3,3-trifluoro-2-hydroxy-1-methyl-propyl]-phenoxy}-nicotinic acid]
